Entries after “also recorded” stand apart in the source; their conditions may differ. Where two headings read alike, the source gives them in different places.
Tests used:
Format in all cases: physicochemical
[1] = Gravimetric Vapour Sorption (GVS) moisture sorption isotherm
Procedure: Sorption isotherms were obtained using a SMS DVS Intrinsic moisture sorption analyser, controlled by DVS Intrinsic Control software. The sample temperature was maintained at 25° C. by the instrument controls. The humidity was controlled by mixing streams of dry and wet nitrogen, with a total flow rate of 200 ml/min. The relative humidity was measured by a calibrated Rotronic probe (dynamic range of 1.0-100% RH), located near the sample. The weight change, (mass relaxation) of the sample as a function of % RH was constantly monitored by a microbalance (accuracy ±0.005 mg). Typically, 5-30 mg of sample was placed in a tared mesh stainless steel basket under ambient conditions. The sample was loaded and unloaded at 40% RH and 25° C. (typical room conditions). A moisture sorption isotherm was performed as outlined below (2 scans per complete cycle). The standard isotherm was performed at 25° C. at 10% RH intervals over a 0-90% RH range. Typically, a double cycle (4 scans) was carried out. Data analysis was carried out within Microsoft Excel using the DVS Analysis Suite.
The sample was recovered after completion of the isotherm and re-analysed by XRPD.

[2] = Storage stability at elevated temperature and humidity (XRPD and HPLC purity after storage)
Procedure: Bruker AXS D8 Advance: XRPD diffractograms were collected on a Bruker D8 diffractometer using Cu Kα radiation (40 kV, 40 mA) and a θ-2θ goniometer fitted with a Ge monochromator. The incident beam passes through a 2.0 mm divergence slit followed by a 0.2 mm anti-scatter slit and knife edge. The diffracted beam passes through an 8.0 mm receiving slit with 2.5° Soller slits followed by the Lynxeye Detector. The software used for data collection and analysis was Diffrac Plus XRD Commander and Diffrac Plus EVA respectively. Samples were run under ambient conditions as flat plate specimens using powder as received. The sample was prepared on a polished, zero-background (510) silicon wafer by gently pressing onto the flat surface or packed into a cut cavity. The sample was rotated in its own plane. The details of the data collection method are: • Angular range: 2 to 42° 2θ • Step size: 0.05° 2θ • Collection time: 0.5 s/step (total collection time: 6.40 min)
Purity analysis was performed on an Agilent Ip 100/Infinity 111260 series system equipped with a diode array detector and using OpenLAB software. The full method details are provided below:
The three potential cocrystals were characterised using DSC, 1H NMR, TGA and by evaluating their stability with XRPD after 7 or 8 days of being stored at 40° C./75% RH. All three cocrystals were unchanged by XRPD after storage at 40° C./75% RH and none had significant amounts of solvent present (Table 28). The 4 HBA cocrystal appeared to have a similar melt to the starting material (ca. 85° C.). […] All initially appeared to have a 1:1 stoichiometry. […]

[3] = Solubility assessment in solvents (visual); conditions: for solubility: read-out: Observations from solubility assessment
Procedure: API (25 mg) was dispensed to a PLC vial with a magnetic stirrer. At room temperature an aliquot of solvent was added (5 vol.=125 μL) and stirred at 25° C. for at least 5 minutes. A visual assessment was made. Solutions were held at 25° C. and suspensions were placed at 50° C. with stirring for at least 5 minutes. A visual assessment was made and if a suspension was observed, further aliquots of solvent were added at 25° C. and the above steps repeated until a maximum of 50 volumes were added (Table 7).

[4] = Differential Scanning Calorimetry (DSC); conditions: * = multiple thermal events
Procedure: TA Instruments Q2000: DSC data were collected on a TA Instruments Q2000 equipped with a 50 position auto sampler. Typically, 0.5 3 mg of each sample, in a pin-holed aluminium pan, was heated at 10° C./min from 25° C. to 235° C. A purge of dry nitrogen at 50 mlmL/min was maintained over the sample. The instrument control software was Advantage for Q Series and Thermal Advantage and the data were analysed using Universal Analysis or TRIOS.
TA Instruments Discovery DSC: DSC data were also collected on a TA Instruments Discovery DSC equipped with a 50 position auto-sampler. Typically, 0.5 3 mg of each sample, in a pin-holed aluminium pan, was heated at 10° C./min from 25° C. to 235° C. A purge of dry nitrogen at 50 mlmL/min was maintained over the sample. The instrument control software was TRIOS and the data were analysed using TRIOS or Universal Analysis.

[5] = Storage stability at elevated temperature and humidity (XRPD and HPLC purity after storage); remark: listed apart in the source

## O=C1C[C@H](c2cc(F)c(F)c(F)c2)CN1Cn1ncnc1Cl [API, (4R)-1-[(5-chloro-1H-1,2,4-triazol-1-yl)methyl]-4-(3,4,5-trifluorophenyl)pyrrolidin-2-one]
[1]; in words, by GVS
  Hygroscopicity: not hygroscopic
[1]; sample re-analysed by XRPD after isotherm
  XRPD post-GVS: no form change observed; also recorded: Unchanged by XRPD post-GVS
[2]; 40° C./75% RH
  XRPD after storage: Unchanged
[2]; XRPD after storage
  Stability at 25° C./97% RH and 40° C./75% RH: Stable,
[3]; 1,4-dioxane, 25 °C, organic solvent or mixture, thermodynamic from solid, 1,4-Dioxane, 5 vol, 25° C.
  solubility: > 200 mg/mL
[3]; 2-methyl-1-propanol, 25 °C, organic solvent or mixture, thermodynamic from solid, 2-methyl-1-propanol, 5 vol, 25° C.
  solubility: < 200 mg/mL
[3]; 2-methyl-1-propanol, 50 °C, organic solvent or mixture, thermodynamic from solid, 2-methyl-1-propanol, 5 vol, 50° C.
  solubility: > 200 mg/mL
[3]; 2-propanol, 25 °C, organic solvent or mixture, thermodynamic from solid, 2-Propanol, 5 vol, 25° C.
  solubility: < 200 mg/mL
[3]; 2-propanol, 50 °C, organic solvent or mixture, thermodynamic from solid, 2-Propanol, 5 vol, 50° C.
  solubility: > 200 mg/mL
[3]; IPA:water (9:1 v/v), 25 °C, organic solvent or mixture, thermodynamic from solid, IPA:Water (9:1 v/v), 5 vol, 25° C.
  solubility: < 200 mg/mL
[3]; IPA:water (9:1 v/v), 50 °C, organic solvent or mixture, thermodynamic from solid, IPA:Water (9:1 v/v), 5 vol, 50° C.
  solubility: > 200 mg/mL
[3]; IPAC, 25 °C, organic solvent or mixture, thermodynamic from solid, IPAC, 5 vol, 25° C.
  solubility: > 200 mg/mL
[3]; MEK, 25 °C, organic solvent or mixture, thermodynamic from solid, MEK, 5 vol, 25° C.
  solubility: > 200 mg/mL
[3]; MIBK, 25 °C, organic solvent or mixture, thermodynamic from solid, MIBK, 5 vol, 25° C.
  solubility: > 200 mg/mL
[3]; TBME, 25 °C, organic solvent or mixture, thermodynamic from solid, TBME, 5 vol, 25° C.
  solubility: < 200 mg/mL
[3]; TBME, 25 °C, organic solvent or mixture, thermodynamic from solid, TBME, 10 vol, 25° C.
  solubility: < 100 mg/mL
[3]; TBME, 50 °C, organic solvent or mixture, thermodynamic from solid, TBME, 5 vol, 50° C.
  solubility: < 200 mg/mL
[3]; TBME, 50 °C, organic solvent or mixture, thermodynamic from solid, TBME, 10 vol, 50° C.
  solubility: > 100 mg/mL
[3]; acetone, 25 °C, organic solvent or mixture, thermodynamic from solid, Acetone, 5 vol, 25° C.
  solubility: > 200 mg/mL
[3]; acetone:water (95:5 v/v), 25 °C, organic solvent or mixture, thermodynamic from solid, Acetone:water (95:5 v/v), 5 vol, 25° C.
  solubility: < 200 mg/mL
[3]; acetone:water (95:5 v/v), 50 °C, organic solvent or mixture, thermodynamic from solid, Acetone:water (95:5 v/v), 5 vol, 50° C.
  solubility: > 200 mg/mL
[3]; acetonitrile, 25 °C, organic solvent or mixture, thermodynamic from solid, Acetonitrile, 5 vol, 25° C.
  solubility: > 200 mg/mL
[3]; diethyl ether, 25 °C, organic solvent or mixture, thermodynamic from solid, Diethyl ether, 5 vol, 25° C.
  solubility: < 200 mg/mL
[3]; diethyl ether, 25 °C, organic solvent or mixture, thermodynamic from solid, Diethyl ether, 10 vol, 25° C.
  solubility: < 100 mg/mL
[3]; diethyl ether, 25 °C, organic solvent or mixture, thermodynamic from solid, Diethyl ether, 50 vol, 25° C.
  solubility: > 20 mg/mL
[3]; ethanol, 25 °C, organic solvent or mixture, thermodynamic from solid, Ethanol, 5 vol, 25° C.
  solubility: < 200 mg/mL
[3]; ethanol, 50 °C, organic solvent or mixture, thermodynamic from solid, Ethanol, 5 vol, 50° C.
  solubility: > 200 mg/mL
[3]; ethanol:water (9:1 v/v), 25 °C, organic solvent or mixture, thermodynamic from solid, Ethanol:Water (9:1 v/v), 5 vol, 25° C.
  solubility: > 200 mg/mL
[3]; ethyl acetate, 25 °C, organic solvent or mixture, thermodynamic from solid, Ethyl acetate, 5 vol, 25° C.
  solubility: > 200 mg/mL
[3]; most of the organic solvents tested, water, diethyl ether and n-heptane are the exceptions
  Solubility in organic solvents: good solubility
[3]; n-heptane, 25 °C, organic solvent or mixture, thermodynamic from solid, n-heptane, 5 vol, 25° C.
  solubility: < 200 mg/mL
[3]; n-heptane, 50 °C, organic solvent or mixture, thermodynamic from solid, n-heptane, 5 vol, 50° C.
  solubility: < 200 mg/mL
[3]; n-heptane, 50 °C, organic solvent or mixture, thermodynamic from solid, n-heptane, 50 vol, 50° C.
  solubility: < 20 mg/mL
[3]; nitromethane, 25 °C, organic solvent or mixture, thermodynamic from solid, Nitromethane, 5 vol, 25° C.
  solubility: > 200 mg/mL
[3]; tetrahydrofuran, 25 °C, organic solvent or mixture, thermodynamic from solid, Tetrahydrofuran, 5 vol, 25° C.
  solubility: > 200 mg/mL
[3]; toluene, 25 °C, organic solvent or mixture, thermodynamic from solid, Toluene, 5 vol, 25° C.
  solubility: < 200 mg/mL
[3]; toluene, 50 °C, organic solvent or mixture, thermodynamic from solid, Toluene, 5 vol, 50° C.
  solubility: > 200 mg/mL
[3]; water, 25 °C, water, thermodynamic from solid, Water, 5 vol, 25° C.
  solubility: < 200 mg/mL
[3]; water, 25 °C, water, thermodynamic from solid, Water, 10 vol, 25° C.
  solubility: < 100 mg/mL
[3]; water, 25 °C, water, thermodynamic from solid, Water, 50 vol, 25° C.
  solubility: < 20 mg/mL
[3]; water, 50 °C, water, thermodynamic from solid, Water, 5 vol, 50° C.
  solubility: < 200 mg/mL
[3]; water, 50 °C, water, thermodynamic from solid, Water, 10 vol, 50° C.
  solubility: < 100 mg/mL
[3]; water, 50 °C, water, thermodynamic from solid, Water, 50 vol, 50° C.
  solubility: < 20 mg/mL
[4]
  Melting point (onset): 85.3 °C
[5]; 25° C./97% RH
  XRPD after storage: XRPD - Unchanged
[5]; 25° C./97% RH, 7 days
  Purity after storage: Purity - 7 days: 99.5%, 14 days: 99.5%
[5]; 25° C./97% RH, 14 days
  Purity after storage: Purity - 7 days: 99.5%, 14 days: 99.5%
[5]; 40° C./75% RH, 7 days
  Purity after storage: Purity - 7 days: 99.5%, 14 days: 99.5% XRPD -
[5]; 40° C./75% RH, 14 days
  Purity after storage: Purity - 7 days: 99.5%, 14 days: 99.5% XRPD -
[5]; 14 days at 25° C./75% RH
  Stability after storage: stable
[5]; 14 days at 40° C./97% RH
  Stability after storage: stable

From patent publication US20240132478A1, “COCRYSTAL” (Syndesi Therapeutics SA, priority 2020, published 2024)
